Values of other authors in patent US20250145561A1, “4-SUBSTITUTED-PHENYL ACETAMIDES AND ARYLUREAS AS AGONISTS FOR THE ORPHAN RECEPTOR GPR88” (RESEARCH TRIANGLE INSTITUTE, priority 2022, published 2025).

Tests used:
[1] = rats, intraperitoneally, dose-dependent; cited from earlier work
[2] = rats, intraperitoneally; cited from earlier work

COCc1ccc(-c2ccc(N(C[C@@H](N)[C@@H](C)OC)C(=O)[C@@H]3C[C@H]3c3ccccn3)cc2)cc1 [RTI-13951-33]
alcohol intake [1]: significantly reduced | alcohol self-administration [1]: significantly reduced | sucrose self-administration [2]: without effects
